Results as given in US20210355115A1, “ISOXAZOLE CARBOXAMIDE COMPOUNDS AND USES THEREOF” (Novartis AG, priority 2018, published 2021).

test system: mouse cochlea explants with hair cell damage; assay: Ex vivo hair cell induction assay using 6-day-postnatal mouse cochlea explants with hair cell damage; assay type: cell-based; conditions: 10 μM; neomycin-damaged P6 Atoh1-GFP mouse cochlea explants; 8 days treatment; Mean ± SD; DMSO control 0
Description: Ex Vivo Hair Cell Induction Assay Using 6-Day-Postnatal Mouse Cochlea Explants with Hair Cell Damage
P6, postnatal 6 days, Atoh1-GFP mice, the same mouse strain used for Atoh1 induction assay described before, were used in this assay. The otic capsule was exposed and the cochleae were micro-dissected. The basilar membrane was separated from the organ of Corti and in vitro cultured in serum free medium (culture medium: DMEM/F12+1% N2+2% B27+5 μg/ml ampicillin) at 37° C. under a standard gas atmosphere of humidified air/5% CO2. Inner ear hair cells were damaged by 1 mM Neomycin treatment for […] After the neomycin treatment, explants were cultured in blank culture medium for 7 days before the treatment of selected compounds.
For compound administration, the cochlea explants were treated with 3 to 10 μM compound of the present disclosure, with DMSO as the negative control for 8 days with once compound/medium change. After 8 days treatment, the tested compound was removed. The explants were cultured in blank medium for additional 4 days. The cochlea explant cultures then were fixed with 4% w/v formalin and processed for Myo7a immunofluorescence (Myo7a is a specific marker for sensory hair cell) using the rabbit anti-Myo7a antibody (Protus Biosci #25-6790, 1:250 diluted in PBS containing 3% BSA). Rhodamine labeled Goat-anti-rabbit IgG (Molecular Prob. #R6394, 1:1000 diluted in PBS containing 3% BSA) was used as the secondary antibody to visualize the Myo7a positive cells. The images were collected and analyzed using the EVOS image system (Thermo-Fisher Scientific). […] The hair cell identity of the ectopically formed cells was confirmed by staining the cells with multiple hair cell markers.
The efficacy of hair cells induction in this assay is represented by the responsive length percentage of Atoh1 and Myo7a double positive cells in the damaged whole explants after compound treatment. The responsive length percentage was calculated according to the equation of ((the explant length with Atoh1 and Myo7a double positive cells/the full length of cochlea explant)*100%). Note the value of DMSO control is 0% due to total damage of hair cells, and any responsive length percentage more than 20% is considered as significant hair cell induction.

| Compound | Atoh1-GFP/Myo7a cell numbers in 25%-50% length from Apex | Response ratio (Response length/full length %) [%] |
| --- | --- | --- |
| NC(=O)[C@@H](O)CN1CCN(CCCCCNC(=O)c2cc(-c3cccs3)on2)CC1 [Example 37 S, (S)—N-(5-(4-(3-amino-2-hydroxy-3-oxopropyl)piperazin-1-yl)pentyl)-5-(thiophen-2-yl)isoxazole-3-carboxamide] | 11.1 ± 3.0 | 50.1 ± 16.8 |
| NC(=O)C(O)CN1CCN(CCCCCNC(=O)c2cc(-c3cccs3)on2)CC1 (stereo not shown) [Example 37, N-(5-(4-(3-amino-2-hydroxy-3-oxopropyl)piperazin-1-yl)pentyl)-5-(thiophen-2-yl)isoxazole-3-carboxamide] | 16.3 ± 4.0 | 56.9 ± 8.8 |
| NC(=O)C1CN(CCCCCNC(=O)c2cc(-c3cccs3)on2)CC1O (single isomer, unassigned) [33 peak 1] | 19.4 ± 2.7 | 62.1 ± 11.8 |
| NC(=O)[C@H](O)CN1CCN(CCCCCNC(=O)c2cc(-c3cccs3)on2)CC1 [Example 37 R, (R)—N-(5-(4-(3-amino-2-hydroxy-3-oxopropyl)piperazin-1-yl)pentyl)-5-(thiophen-2-yl)isoxazole-3-carboxamide] | 13.6 ± 4.0 | 42.2 ± 7.7 |
| NC(=O)[C@@H]1CN(CCCCCNC(=O)c2cc(-c3cccs3)on2)CC[C@H]1O [35 trans] | 14.2 ± 1.8 | 63.9 ± 5.8 |
| NC(=O)CN1CCN(CCCCCNC(=O)c2cc(-c3cccs3)on2)CC1 [Example 18, N-(5-(4-(2-amino-2-oxoethyl)piperazin-1-yl)pentyl)-5-(thiophen-2-yl)isoxazole-3-carboxamide] | 16.1 ± 3.0 | 59.4 ± 5.3 |

test system: Atoh1; assay: Atoh1 induction assay in mouse cerebellar neural precursor cells (Atoh1-GFP reporter assay); assay type: cell-based; conditions: maximum fold difference over DMSO control (=1), cerebellar NPCs from Atoh1-GFP mice, 10 doses 50 μM to 200 nM, 72 hours treatment, read-out: Fold Difference (ratio of Atoh1-GFP average intensity_FC to DMSO_Max)
Description: Atoh1 induction assay was conducted with in vitro cultured cerebellar neural precursor cells isolated from neonatal transgenic Atoh1-GFP mice. Atoh1 expression is mainly regulated by the enhancer, and the nuclear GFP was driven by the cloned enhancer sequence at 3′ of Atoh1 which had high conservation among mammalians So Atoh1 induction could be reflected by GFP activation in cerebellar neural precursor cells (Helms et al., Development 2000; 127: 1185-1196; Lumpkin et al., Gene Expression Patterns 2003; 3: 389-395). Postnatal 3 days pups were dissected for cerebellum tissue isolation. The cerebellum tissue was cut into small pieces, and dissociated with 0.05% Trypsin for about 10 minutes at 37° C., and then filtered with a 70 uM cell strainer. The cells were cultured as neuropsheres for the first 2 days in ultra-low attachment dish/well-plate with DMEM/F12+1% N2 &2% B27 with 1% P/S, 20 ng/ml rhFGF2 and 20 ng/ml rhEGF (R&D Systems). Then the spheres were plated to the matrigel (1:30 diluted in DMEM/F12)-coated tissue culture dish for monolayer culture. After 4.5-5.5 days culture in vitro (DIV), cells were dissociated with 0.05% trypsin into single cells, and frozen after cell number calculation.
The cerebellar neural precursor cells (NPCs) were re-thawed from stock and cultured for another 2 days before used for Atoh1 induction assay. On the first day of assay, NPCs were seeded into matrigel-coated 384 well plates (Black view-plate, PE) at 2500 cells/well. After over-night culture, the NPCs were treated with representative compounds of the present disclosure with 1:2 serial dilutions for 10 doses, from 50 μM to 200 nM, with DMSO as negative control. After 72 hours treatment without medium change, the cells were fixed with 4% formalin for staining Assay plates were stained with GFP antibody (Abcam, #13970, 1:1000) to amplify endogenous GFP signal and then read by Cellomics. […] Table 1 Atoh1 activation by treatment of Compounds of the present disclosure (Atoh1-GFP reporter assay in cerebellar NPCs)

| Compound | maximal fold induction |
| --- | --- |
| NC(=O)C(O)CN1CCN(CCCCCNC(=O)c2cc(-c3cccs3)on2)CC1 (stereo not shown) [Example 37, N-(5-(4-(3-amino-2-hydroxy-3-oxopropyl)piperazin-1-yl)pentyl)-5-(thiophen-2-yl)isoxazole-3-carboxamide] | 27.6 |
| CNC(=O)C1CN(CCCCCNC(=O)c2cc(-c3ccc(F)s3)on2)C1 [Example 22, 5-(5-fluorothiophen-2-yl)-N-(5-(3-(methylcarbamoyl)azetidin-1-yl)pentyl)isoxazole-3-carboxamide] | 16.8 |
| CN1CCN(CCCCCNC(=O)c2cc(-c3cccs3)on2)CC1C(N)=O (stereo not shown) [Example 25, N-(5-(3-carbamoyl-4-methylpiperazin-1-yl)pentyl)-5-(thiophen-2-yl)isoxazole-3-carboxamide] | 13.1 |
| N#CCCNS(=O)(=O)C1CN(CCCCCNC(=O)c2cc(-c3cccs3)on2)C1 [Example 4, N-(5-(3-(N-(2-cyanoethyl)sulfamoyl)azetidin-1-yl)pentyl)-5-(thiophen-2-yl)isoxazole-3-carboxamide] | 18.3 |
| NC(=O)C1CN(CCCCCNC(=O)c2cc(-c3cccs3)on2)CC1O (single isomer, unassigned) [33 peak 1] | 34.8 |
| CC1(C(N)=O)CN(CCCCCNC(=O)c2cc(-c3ccc(F)cc3)on2)C1 [Example 12, N-(5-(3-carbamoyl-3-methylazetidin-1-yl)pentyl)-5-(4-fluorophenyl)isoxazole-3-carboxamide] | 22.4 |
| O=C(NCCCCCN1CC(C(=O)N[C@H]2CCC[C@H]2O)C1)c1cc(-c2ccc(F)cc2)on1 [Example 27, 5-(4-fluorophenyl)-N-(5-(3-(((1S,2R)-2-hydroxycyclopentyl)carbamoyl)azetidin-1-yl)pentyl)isoxazole-3-carboxamide] | 13.5 |
| NC(=O)[C@@H]1CCN(CCCCCNC(=O)c2cc(-c3cccs3)on2)C[C@H]1F [Example 28-trans, N-(5-((3S,4S)-4-carbamoyl-3-fluoropiperidin-1-yl)pentyl)-5-(thiophen-2-yl)isoxazole-3-carboxamide] | 16.8 |
| CC1(C(N)=O)CN(CCCCCNC(=O)c2cc(-c3cccs3)on2)C1 [Example 11, N-(5-(3-carbamoyl-3-methylazetidin-1-yl)pentyl)-5-(thiophen-2-yl)isoxazole-3-carboxamide] | 33.3 |
| NC(=O)[C@@H]1CN(CCCCCNC(=O)c2cc(-c3cccs3)on2)CC[C@H]1O [35 trans] | 24.8 |
| NC(=O)C1CCN(CCCCCNC(=O)c2cc(-c3ccc(F)cc3)on2)C1 (stereo not shown) [Example 8, N-(5-(3-carbamoylpyrrolidin-1-yl)pentyl)-5-(4-fluorophenyl)isoxazole-3-carboxamide] | 14.6 |
| NC(=O)[C@@H]1CCN(CCCCCNC(=O)c2cc(-c3cccs3)on2)C[C@@H]1O (stereo in doubt) [Example 30, N-(5-(4-carbamoyl-3-hydroxypiperidin-1-yl)pentyl)-5-(thiophen-2-yl)isoxazole-3-carboxamide] | 16.1 |
| O=C(NCCCCCN1CC(S(=O)(=O)NC2COC2)C1)c1cc(-c2cccs2)on1 [Example 3, N-(5-(3-(N-(oxetan-3-yl)sulfamoyl)azetidin-1-yl)pentyl)-5-(thiophen-2-yl)isoxazole-3-carboxamide] | 11.2 |
| NC(=O)[C@@H](O)CN1CCN(CCCCCNC(=O)c2cc(-c3cccs3)on2)CC1 [37 S] | 31.5 |
| NC(=O)C1(CO)CN(CCCCCNC(=O)c2cc(-c3ccc(F)cc3)on2)C1 [Example 10, N-(5-(3-carbamoyl-3-(hydroxymethyl)azetidin-1-yl)pentyl)-5-(4-fluorophenyl)isoxazole-3-carboxamide] | 19.1 |
| NC(=O)CN1CCN(CCCCCNC(=O)c2cc(-c3cccs3)on2)CC1 [Example 18, N-(5-(4-(2-amino-2-oxoethyl)piperazin-1-yl)pentyl)-5-(thiophen-2-yl)isoxazole-3-carboxamide] | 20.4 |
| NC(=O)[C@@H]1CCN(CCCCCNC(=O)c2cc(-c3cccs3)on2)C[C@@H]1F [Example 28-cis, N-(5-((3R,4S)-4-carbamoyl-3-fluoropiperidin-1-yl)pentyl)-5-(thiophen-2-yl)isoxazole-3-carboxamide] | 11.9 |
| N#C[C@H]1CCN(CCCCCNC(=O)c2cc(-c3cccs3)on2)C[C@@H]1C(N)=O [Example 29, N-(5-((3R,4S)-3-carbamoyl-4-cyanopiperidin-1-yl)pentyl)-5-(thiophen-2-yl)isoxazole-3-carboxamide] | 15.4 |
| NC(=O)C1(O)CCN(CCCCCNC(=O)c2cc(-c3cccs3)on2)CC1 [Example 26, N-(5-(4-carbamoyl-4-hydroxypiperidin-1-yl)pentyl)-5-(thiophen-2-yl)isoxazole-3-carboxamide] | 16.3 |
| CC(C#N)NC(=O)C1CN(CCCCCNC(=O)c2cc(-c3ccc(F)cc3)on2)C1 (stereo not shown) [Example 24, N-(5-(3-((1-cyanoethyl)carbamoyl)azetidin-1-yl)pentyl)-5-(4-fluorophenyl)isoxazole-3-carboxamide] | 18.3 |
| NC(=O)C1CCN(CCCCCNC(=O)c2cc(-c3cccs3)on2)CC1 [Example 20, N-(5-(4-cathamoylpiperidin-1-yl)pentyl)-5-(thiophen-2-yl)isoxazole-3-carboxamide] | 14.7 |
| CNC(=O)COC(=O)NC1CN(CCCCCNC(=O)c2cc(-c3cccs3)on2)C1 [Example 5] | 17.2 |
